Measurements taken from US10927085B2, “1,2-naphthoquinone based derivative and method of preparing the same” (HUEN Co., Ltd., priority 2013, dated 2021).
Like-named read-outs stand apart in the source and are kept apart here.

Experiments:
[1] = target: NQO1 protein (Homo sapiens, UniProt P15559); assay: NQO1 activity measurement (cytochrome C reduction); type: biochemical
Procedure: An enzyme reaction solution included 25 mM Tris/HCl (pH 7.4), 0.14% bovine serum albumin, 200 μM NADH, 77 μM cytochrome C, and 5 ng of NQO1 protein. Enzymatic reaction was initiated by adding NADH and performed at 37° C. In this regard, a reaction rate was measured by observing absorbance, which was increased due to reduction of cytochrome C, at 550 nm for 10 minutes and NQO1 activity was represented as an amount of reduced cytochrome C [nmol cytochrome C reduced/min/μg protein].
Extinction coefficient for cytochrome C:21.1 mmol/L/cm=21.1 μmol/ml/cm

[2] = test system: cells; assay: Measurement of lactate change amount within cells; type: cell-based
Procedure: Cells were treated with 400 μl of 6% PCA, and then collected and extracted. Centrifugation (13,000 rpm, 10 min) was performed. A precipitate was dried using a Speed-Vac and then a weight of dried precipitate was measured. A supernatant was neutralized using 400 μl of 1 M KOH and a final volume thereof was adjusted to 1 ml using 0.33 M KH2PO4/K2HPO4, pH 7.5. Centrifugation (13,000 rpm, 10 min) was performed and the amount of lactate in a supernatant was measured (Megazyme, K-LATE).

[3] = 5 μM, 37° C., absorbance at 550 nm for 10 minutes, 200 μM NADH, 77 μM cytochrome C, 5 ng NQO1 protein

NQO1 protein, sequence (P15559 whole entry, species assumed): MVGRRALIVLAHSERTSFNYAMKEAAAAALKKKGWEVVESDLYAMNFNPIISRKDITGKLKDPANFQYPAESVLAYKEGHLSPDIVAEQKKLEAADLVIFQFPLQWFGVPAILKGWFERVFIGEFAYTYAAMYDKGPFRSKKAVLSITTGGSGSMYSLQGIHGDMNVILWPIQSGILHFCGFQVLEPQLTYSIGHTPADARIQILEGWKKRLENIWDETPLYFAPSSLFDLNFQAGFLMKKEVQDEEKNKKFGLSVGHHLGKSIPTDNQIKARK

Row | SMILES | NQO1 activity (5 μM, [nmol cytochrome C reduced/min/μg protein]) [1, 3] | Lactate change amount within cells (nmol/mg cell) [2] | NQO1 activity (5 μM, [nmol cytochrome C reduced/min/μg protein]) [1]
1 | CC(C)c1nc2c(o1)-c1cccnc1C(=O)C2=O [Example 20, 2-isopropyloxazolo[5,4-f]quinoline-4,5-dione] | 221.0 nmol cytochrome C reduced/min/μg protein | 9.2 nmol/mg cell | 
2 | O=C1C(=O)c2nc(CNc3ccc(Cl)cc3)oc2-c2ccccc21 [Example 44] |  | 5.4 nmol/mg cell | 239.0 nmol cytochrome C reduced/min/μg protein
3 | Cc1nc2c(o1)C(=O)C(=O)c1ncccc1-2 [Example 34] | 923.5 nmol cytochrome C reduced/min/μg protein | 8.9 nmol/mg cell | 
4 | CC(C)C(=O)Nc1ccc2c(c1)C(=O)C(=O)c1oc(C(C)(C)C)nc1-2 [Example 38, N-(2-tert-butyl-4,5-dioxo-4,5-dihydronaphtho[1,2-d]oxazol-7-yl)isobutyramide] | 63.4 nmol cytochrome C reduced/min/μg protein | 4.6 nmol/mg cell | 
5 | O=C1C(=O)c2nc(CNc3cccc(Cl)c3)oc2-c2ccccc21 [Example 45] |  | 6.7 nmol/mg cell | 229.2 nmol cytochrome C reduced/min/μg protein
6 | Cc1cc(=O)n(C)c2c1-c1oc(C(C)C)nc1C(=O)C2=O [Example 7, 2-isopropyl-6,9-dimethyloxazolo[5,4-f]quinoline-4,5,7(6H)-trione] |  | 8.0 nmol/mg cell | 69.8 nmol cytochrome C reduced/min/μg protein
7 | O=C1C(=O)c2nc(CNc3ccccc3)oc2-c2ccccc21 [Example 48] |  | 6.9 nmol/mg cell | 241.4 nmol cytochrome C reduced/min/μg protein
8 | Cc1cc(F)ccc1NCc1nc2c(o1)-c1ccccc1C(=O)C2=O [Example 49] | 229.6 nmol cytochrome C reduced/min/μg protein | 6.0 nmol/mg cell | 
9 | CC(C)c1nc2c(o1)-c1cnccc1C(=O)C2=O [Example 37, 2-isopropyloxazolo[4,5-h]isoquinoline-4,5-dione] | 845.7 nmol cytochrome C reduced/min/μg protein | 10.6 nmol/mg cell | 
10 | CC(C)(C)c1nc2c(o1)-c1c(cccc1[N+](=O)[O-])C(=O)C2=O [Example 18] | 382.9 nmol cytochrome C reduced/min/μg protein | 13.5 nmol/mg cell | 
11 | O=C1C(=O)c2[nH]c(=O)oc2-c2ccccc21 [Example 39] | 30.1 nmol cytochrome C reduced/min/μg protein | 7.8 nmol/mg cell | 
12 | COc1ccc(NCc2nc3c(o2)-c2ccccc2C(=O)C3=O)cc1 [Example 46] |  | 7.4 nmol/mg cell | 208.0 nmol cytochrome C reduced/min/μg protein
13 | CC(C)c1nc2c(o1)C(=O)C(=O)c1ncccc1-2 [Example 33] | 458.3 nmol cytochrome C reduced/min/μg protein | 10.2 nmol/mg cell | 
14 | CC(C)c1nc2c(o1)-c1c(cccc1[N+](=O)[O-])C(=O)C2=O [Example 12, 2-isopropyl-9-nitronaphtho[2,1-d]oxazole-4,5-dione] | 379.2 nmol cytochrome C reduced/min/μg protein | 10.3 nmol/mg cell | 
15 | O=C1C(=O)c2nc(CN3CCCCC3)oc2-c2ccccc21 [Example 6, 2-(piperidin-1-ylmethyl)naphtho[2,1-d]oxazole-4,5-dione] | 171.8 nmol cytochrome C reduced/min/μg protein | 6.7 nmol/mg cell | 
16 | CC(=O)OCc1nc2c(o1)-c1ccccc1C(=O)C2=O [Example 50] | 244.3 nmol cytochrome C reduced/min/μg protein | 8.8 nmol/mg cell | 
